Source: publication PMC2931804 (Clinical cancer research : an official journal of the …, 2010)
Like-named read-outs stand apart in the source and are kept apart here.

[1] = DL1 500 mg twice daily × 3 + sLV5FU2, 1st cycle, n = 3
[2] = DL1 500 mg twice daily × 3 + sLV5FU2, Any cycle, n = 3
[3] = DL1 600 mg once daily × 3 + sLV5FU2, 1st cycle, n = 3
[4] = DL1 600 mg once daily × 3 + sLV5FU2, Any cycle, n = 3
[5] = DL2 600 mg twice daily × 3 + sLV5FU2, 1st cycle, n = 6
[6] = DL2 600 mg twice daily × 3 + sLV5FU2, Any cycle, n = 6
[7] = DL2 800 mg once daily × 3 + sLV5FU2, 1st cycle, n = 3
[8] = DL2 800 mg once daily × 3 + sLV5FU2, Any cycle, n = 3
[9] = DL3 800 mg twice daily × 3 + sLV5FU2, 1st cycle, n = 3
[10] = DL3 800 mg twice daily × 3 + sLV5FU2, Any cycle, n = 3

## O=C(CCCCCCC(=O)Nc1ccccc1)NO [vorinostat, suberoylanilide hydroxamic acid]
800 mg vorinostat twice-daily dose level + sLV5FU2
  Dose-limiting toxicities: Grade 3 fatigue and mucositis
2,000 mg vorinostat once-daily dose level + sLV5FU2
  Dose-limiting toxicities: Grade 3 fatigue, and hand and foot syndrome
[1]
  ATE, treatment-related, patients (G2/G3/G4): 0/0/0
  Anemia, treatment-related, patients (G2/G3/G4): 0/0/0
  Anorexia, treatment-related, patients (G2/G3/G4): 0/0/0
  Chelitis, treatment-related, patients (G2/G3/G4): 0/0/0
  Dehydration, treatment-related, patients (G2/G3/G4): 0/0/0
  Diarrhea, treatment-related, patients (G2/G3/G4): 1/0/0
  Esophagitis, treatment-related, patients (G2/G3/G4): 0/0/0
  Fatigue, treatment-related, patients (G2/G3/G4): 2/0/0
  Fever, treatment-related, patients (G2/G3/G4): 0/0/0
  Headache, treatment-related, patients (G2/G3/G4): 0/0/0
  Mucositis, treatment-related, patients (G2/G3/G4): 0/0/0
  Nausea, treatment-related, patients (G2/G3/G4): 1/0/0
  Neutropenia, treatment-related, patients (G2/G3/G4): 0/0/0
  Thrombocytopenia, treatment-related, patients (G2/G3/G4): 0/0/0
  VTE, treatment-related, patients (G2/G3/G4): 0/0/0
  Vomiting, treatment-related, patients (G2/G3/G4): 1/0/0
[2]
  ATE, treatment-related, patients (G2/G3/G4): 0/0/0
  Anemia, treatment-related, patients (G2/G3/G4): 0/0/0
  Anorexia, treatment-related, patients (G2/G3/G4): 2/0/0
  Chelitis, treatment-related, patients (G2/G3/G4): 0/0/0
  Dehydration, treatment-related, patients (G2/G3/G4): 0/0/0
  Diarrhea, treatment-related, patients (G2/G3/G4): 1/0/0
  Esophagitis, treatment-related, patients (G2/G3/G4): 1/0/0
  Fatigue, treatment-related, patients (G2/G3/G4): 3/0/0
  Fever, treatment-related, patients (G2/G3/G4): 1/0/0
  Headache, treatment-related, patients (G2/G3/G4): 0/0/0
  Mucositis, treatment-related, patients (G2/G3/G4): 1/0/0
  Nausea, treatment-related, patients (G2/G3/G4): 2/0/0
  Neutropenia, treatment-related, patients (G2/G3/G4): 0/0/0
  Thrombocytopenia, treatment-related, patients (G2/G3/G4): 0/0/0
  VTE, treatment-related, patients (G2/G3/G4): 0/0/0
  Vomiting, treatment-related, patients (G2/G3/G4): 1/0/0
[3]
  Anemia, treatment-related, patients (G2/G3/G4): 1/0/0
  Anorexia, treatment-related, patients (G2/G3/G4): 1/0/0
  DVT/PE, treatment-related, patients (G2/G3/G4): 0/0/0
  Dehydration, treatment-related, patients (G2/G3/G4): 0/0/0
  Diarrhea, treatment-related, patients (G2/G3/G4): 0/0/0
  Fatigue, treatment-related, patients (G2/G3/G4): 1/0/0
  GI bleed, treatment-related, patients (G2/G3/G4): 0/0/0
  Hand and Foot, treatment-related, patients (G2/G3/G4): 0/0/0
  Infection, treatment-related, patients (G2/G3/G4): 0/0/0
  Mucositis, treatment-related, patients (G2/G3/G4): 0/0/0
  Nausea, treatment-related, patients (G2/G3/G4): 1/0/0
  Neutropenia, treatment-related, patients (G2/G3/G4): 0/0/0
  Thrombocytopenia, treatment-related, patients (G2/G3/G4): 1/0/0
  Vomiting, treatment-related, patients (G2/G3/G4): 0/0/0
  Weight Loss, treatment-related, patients (G2/G3/G4): 0/0/0
[4]
  Anemia, treatment-related, patients (G2/G3/G4): 1/0/0
  Anorexia, treatment-related, patients (G2/G3/G4): 1/0/0
  Creatinine, treatment-related, patients (G2/G3/G4): 1/0/0
  DVT/PE, treatment-related, patients (G2/G3/G4): 0/0/0
  Dehydration, treatment-related, patients (G2/G3/G4): 1/0/0
  Diarrhea, treatment-related, patients (G2/G3/G4): 0/1/0
  Fatigue, treatment-related, patients (G2/G3/G4): 2/0/0
  GI bleed, treatment-related, patients (G2/G3/G4): 0/0/0
  Hand and Foot, treatment-related, patients (G2/G3/G4): 0/0/0
  Infection, treatment-related, patients (G2/G3/G4): 0/0/0
  Mucositis, treatment-related, patients (G2/G3/G4): 2/0/0
  Nausea, treatment-related, patients (G2/G3/G4): 1/0/0
  Neutropenia, treatment-related, patients (G2/G3/G4): 0/0/0
  Thrombocytopenia, treatment-related, patients (G2/G3/G4): 1/0/0
  Vomiting, treatment-related, patients (G2/G3/G4): 1/0/0
  Weight Loss, treatment-related, patients (G2/G3/G4): 0/0/0
DL1 (500 mg twice daily × 3) and DL2 (600 mg twice daily), three patients each
  DLT: without any DLT
[5]
  ATE, treatment-related, patients (G2/G3/G4): 0/0/0
  Anemia, treatment-related, patients (G2/G3/G4): 1/0/0
  Anorexia, treatment-related, patients (G2/G3/G4): 2/0/0
  Chelitis, treatment-related, patients (G2/G3/G4): 0/0/0
  Dehydration, treatment-related, patients (G2/G3/G4): 0/0/0
  Diarrhea, treatment-related, patients (G2/G3/G4): 1/0/0
  Esophagitis, treatment-related, patients (G2/G3/G4): 0/0/0
  Fatigue, treatment-related, patients (G2/G3/G4): 3/0/0
  Fever, treatment-related, patients (G2/G3/G4): 0/0/0
  Headache, treatment-related, patients (G2/G3/G4): 0/0/0
  Mucositis, treatment-related, patients (G2/G3/G4): 0/0/0
  Nausea, treatment-related, patients (G2/G3/G4): 3/0/0
  Neutropenia, treatment-related, patients (G2/G3/G4): 0/0/0
  Thrombocytopenia, treatment-related, patients (G2/G3/G4): 0/1/0
  VTE, treatment-related, patients (G2/G3/G4): 0/0/0
  Vomiting, treatment-related, patients (G2/G3/G4): 1/0/0
[6]
  ATE, treatment-related, patients (G2/G3/G4): 0/0/0
  Anemia, treatment-related, patients (G2/G3/G4): 1/1/0
  Anorexia, treatment-related, patients (G2/G3/G4): 2/0/0
  Chelitis, treatment-related, patients (G2/G3/G4): 0/0/0
  Dehydration, treatment-related, patients (G2/G3/G4): 2/0/0
  Diarrhea, treatment-related, patients (G2/G3/G4): 1/0/0
  Esophagitis, treatment-related, patients (G2/G3/G4): 0/0/0
  Fatigue, treatment-related, patients (G2/G3/G4): 3/1/0
  Fever, treatment-related, patients (G2/G3/G4): 0/0/1
  Headache, treatment-related, patients (G2/G3/G4): 0/1/0
  Mucositis, treatment-related, patients (G2/G3/G4): 0/0/0
  Nausea, treatment-related, patients (G2/G3/G4): 3/0/0
  Neutropenia, treatment-related, patients (G2/G3/G4): 0/0/0
  Thrombocytopenia, treatment-related, patients (G2/G3/G4): 0/0/1
  VTE, treatment-related, patients (G2/G3/G4): 0/0/0
  Vomiting, treatment-related, patients (G2/G3/G4): 1/0/0
DL2 600 mg twice daily × 3 + sLV5FU2, six patients
  Patients with DLT: None and without any DLT
[7]
  Anemia, treatment-related, patients (G2/G3/G4): 1/0/0
  Anorexia, treatment-related, patients (G2/G3/G4): 1/0/0
  Creatinine, treatment-related, patients (G2/G3/G4): 1/0/0
  DVT/PE, treatment-related, patients (G2/G3/G4): 0/0/0
  Dehydration, treatment-related, patients (G2/G3/G4): 0/0/0
  Diarrhea, treatment-related, patients (G2/G3/G4): 0/0/0
  Fatigue, treatment-related, patients (G2/G3/G4): 1/0/0
  GI bleed, treatment-related, patients (G2/G3/G4): 0/0/0
  Hand and Foot, treatment-related, patients (G2/G3/G4): 0/0/0
  Infection, treatment-related, patients (G2/G3/G4): 0/0/0
  Mucositis, treatment-related, patients (G2/G3/G4): 0/0/0
  Nausea, treatment-related, patients (G2/G3/G4): 1/0/0
  Neutropenia, treatment-related, patients (G2/G3/G4): 0/0/0
  Thrombocytopenia, treatment-related, patients (G2/G3/G4): 1/0/0
  Vomiting, treatment-related, patients (G2/G3/G4): 0/0/0
  Weight Loss, treatment-related, patients (G2/G3/G4): 0/0/0
[8]
  Anemia, treatment-related, patients (G2/G3/G4): 1/0/0
  Anorexia, treatment-related, patients (G2/G3/G4): 2/0/0
  DVT/PE, treatment-related, patients (G2/G3/G4): 0/0/0
  Dehydration, treatment-related, patients (G2/G3/G4): 0/0/0
  Diarrhea, treatment-related, patients (G2/G3/G4): 1/0/0
  Fatigue, treatment-related, patients (G2/G3/G4): 2/0/0
  GI bleed, treatment-related, patients (G2/G3/G4): 0/0/0
  Hand and Foot, treatment-related, patients (G2/G3/G4): 0/0/0
  Infection, treatment-related, patients (G2/G3/G4): 0/0/0
  Mucositis, treatment-related, patients (G2/G3/G4): 0/0/0
  Nausea, treatment-related, patients (G2/G3/G4): 2/0/0
  Neutropenia, treatment-related, patients (G2/G3/G4): 0/0/0
  Thrombocytopenia, treatment-related, patients (G2/G3/G4): 1/0/0
  Vomiting, treatment-related, patients (G2/G3/G4): 0/0/0
  Weight Loss, treatment-related, patients (G2/G3/G4): 0/0/0
[9]
  ATE, treatment-related, patients (G2/G3/G4): 0/0/0
  Anemia, treatment-related, patients (G2/G3/G4): 0/0/0
  Anorexia, treatment-related, patients (G2/G3/G4): 1/0/0
  Chelitis, treatment-related, patients (G2/G3/G4): 1/0/0
  Dehydration, treatment-related, patients (G2/G3/G4): 2/0/0
  Diarrhea, treatment-related, patients (G2/G3/G4): 1/0/0
  Esophagitis, treatment-related, patients (G2/G3/G4): 1/0/0
  Fever, treatment-related, patients (G2/G3/G4): 0/0/0
  Headache, treatment-related, patients (G2/G3/G4): 0/0/0
  Nausea, treatment-related, patients (G2/G3/G4): 0/0/0
  Neutropenia, treatment-related, patients (G2/G3/G4): 0/0/0
  Thrombocytopenia, treatment-related, patients (G2/G3/G4): 3/0/0
  VTE, treatment-related, patients (G2/G3/G4): 0/0/0
  Vomiting, treatment-related, patients (G2/G3/G4): 0/0/0
[10]
  ATE, treatment-related, patients (G2/G3/G4): 0/0/1
  Anemia, treatment-related, patients (G2/G3/G4): 0/2/0
  Anorexia, treatment-related, patients (G2/G3/G4): 2/0/0
  Chelitis, treatment-related, patients (G2/G3/G4): 2/0/0
  Dehydration, treatment-related, patients (G2/G3/G4): 2/0/0
  Diarrhea, treatment-related, patients (G2/G3/G4): 0/1/0
  Esophagitis, treatment-related, patients (G2/G3/G4): 1/0/0
  Fatigue, treatment-related, patients (G2/G3/G4): 1/2/0
  Fever, treatment-related, patients (G2/G3/G4): 0/0/0
  Headache, treatment-related, patients (G2/G3/G4): 0/0/0
  Mucositis, treatment-related, patients (G2/G3/G4): 2/1/1
